{"source": "patent US8575092B2", "about": "“Gelling hydrophobic injectable polymer compositions” (Efrat Biopolymers Ltd., priority 2005, dated 2013)", "key": {"[1]": {"tested_on": "S. aureus", "test": "Minimum inhibitory concentration of gentamicin", "assay_type": "cell-based", "settings": "S. aureus used in this study", "experimental": "The minimum inhibitory concentration of gentamicin for the S. aureus used in this study is 2-4 μg/ml. […] No effect was found in these wells: the O.D. was approximately 0.7. In the wells that contained S. aureus in TSB only, O.D. of approximately 0.6 was found. In view of the results of gentamicin release (FIG. 14) and the profound bacterial inhibition by the diluted solutions (FIG. 15), there is probably a significant antibacterial activity in the release medium at an earlier stage."}, "[2]": {"settings": "mouse", "description": "Inbred 8-10 week old female C3H mice, weighing about 20 g (Harlan Laboratories, Israel) were kept under specific pathogen free (SPF) conditions and given free access to irradiated sterile food and acidified water throughout the experiment. Blank polymer and pasty formulations containing paclitaxel (5% and 10% w/w) were injected subcutaneously to the backspace via a 23G needle into 12 groups of four C3H mice in each group. […] After 1, 7, 21 and 70 days, mice were sacrificed by cervical dislocation. The polymer implant was taken out, weighed before and after lyophilization and examined for paclitaxel content in the remaining formulation."}, "[3]": {"test": "Solubility of bupivacaine free base in the polymer", "assay_type": "physicochemical", "experimental": "Bupivacaine free base (5, 7, 10% w/w) was incorporated in the liquid polymers by mixing the drug powder in the polymer at 40° C. and filling 1 ml syringe with this formulation. This formulation is a semi-solid at room temperature and liquid at body temperature. […] The free base bupivacaine formed a clear solution in the polymer while the HCl salt was a fine dispersion.\nBupivacaine was incorporated in the polymer without affecting the polymer molecular weight, as confirmed by GPC. Bupivacaine free base (BFB) is easily soluble in P(SA-RA) up to 15% w/w BFB. The hydrochloride salt dispersed well in the polymer without affecting its viscosity at least up to 15% w/w loading. P(SA-RA) 2:8 and 3:7 formulations containing 5% and 7% of bupivacaine constantly released the drug at a first order profile with about 60% of the incorporated drug was released during 7 days in buffer, formulation containing 10% released approximately 70% of its content during this period. For all experiments, the higher MW polymers (Mw=18,000) release the drug at a slower rate, between 10 and 20% less the amount released at each time point, compared to the low MW polymers (Mw=5,000)."}}}
{"compound": "gentamicin", "values": [{"measurement": "minimum inhibitory concentration", "setting": "[1]", "value": "2 to 4", "unit": "µg/mL"}]}
{"compound": "Poly(sebacic acid-co-ricinoleic acid ester anhydride) 2:8 [P(SA:RA) (2:8)]", "values": [{"measurement": "in vivo degradation", "setting": "[2]", "value": "completely degraded"}]}
{"compound": "CCCCN1CCCCC1C(=O)Nc1c(C)cccc1C", "note": "(stereo not drawn) [BFB, Bupivacaine]", "values": [{"measurement": "solubility in P(SA-RA)", "setting": "[3]", "value": "up to 15 % w/w"}]}
